Results taken from article PMC3898733 (ACS nano, 2013).

Tested on: Factor VII
Test: In vivo Factor VII silencing
Details: for knock down of coagulation Factor VII: as stated in the abstract, dose not printed there; for activity in decreasing Factor VII expression: nanoparticles decorated with scrambled peptide, three days post injection

| Substance | knock down of coagulation Factor VII | reduction of Factor VII expression (peptide decorated nanoparticles with Factor VII siRNA, tail vein, 5 mg/kg siRNA, blood three days post-injection, n=5) | activity in decreasing Factor VII expression (5 mg/kg siRNA) |
| --- | --- | --- | --- |
| CWLCRALIKRIQAMIP [compound 5] | 90% | 50% |  |
| KRCRGWRQKMCLW |  |  | did not exhibit any activity |
| LRGYEGHRCGILALLDLACTKHANCLPCTQPS |  |  | did not exhibit any activity |
| MLRIAIRAWLCIPQCK |  |  | did not exhibit any activity |
| lactoferricin | 90% |  |  |
